Where only a bound is given, the exact number is not on record here.

The assay concerns the target GABAA receptor. Description: Steroid inhibition of [35S]-TBPS binding, rat brain cortical membranes. As to conditions: 3 nM [35S]-TBPS, in the presence of 5 mM GABA. In a few lines: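 In the presence of […], compounds (DMSO 0.5% final) competed with 3 nM [35S]-TBPS for Sprague-Dawley rat cortical membranes, pH 7.4 phosphate buffer, 90 min, room temperature. Filtration and scintillation counting; specific binding defined by […]; IC50 and maximal inhibition fitted per experiment, averaged as mean ± SEM.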
The term IC50 denotes the concentration that gives 50% inhibition. `COC[C@@]1(O)CC[C@H]2[C@H](CC[C@@H]3[C@@H]2CC[C@]2(C)[C@@H](C(F)(F)Cn4cc(C#N)cn4)CC[C@@H]32)C1` [Compound 38, 1-(2,2-difluoro-2-((3R,5R,8R,9R,10S,13S,14S,17S)-3-hydroxy-3-(methoxymethyl)-13-methylhexadecahydro-1H-cyclopenta[a]phenanthren-17-yl)ethyl)-1H-pyrazole-4-carbonitrile]: the IC50 is under 100 nM.

For `CC[C@H]1C[C@H]2[C@H](CC[C@@H]3[C@@H]2CC[C@@]2(C)[C@H]3CC[C@@H]2[C@@](C)(O)Cn2cc(C#N)cn2)C[C@]1(C)O` [Compound 35, 1-((R)-2-((2S,3S,5R,8R,9R,10S,13S,14S,17S)-2-ethyl-3-hydroxy-3,13-dimethylhexadecahydro-1H-cyclopenta[a]phenanthren-17-yl)-2-hydroxypropyl)-1H-pyrazole-4-carbonitrile], the IC50 was in the range of 100 to 1000 nM.

On to `C[C@@]1(O)CC[C@H]2[C@H](CC[C@@H]3[C@@H]2CC[C@]2(C)[C@@H](C4(Cn5cc(C#N)cn5)COC4)CC[C@@H]32)C1` [Compound 28, 1-((3-((3R,5R,8R,9R,10S,13S,14S,17S)-3-hydroxy-3,13-dimethylhexadecahydro-1H-cyclopenta[a]phenanthren-17-yl)oxetan-3-yl)methyl)-1H-pyrazole-4-carbonitrile], for which the IC50 is under 100 nM.

`C[C@@]1(O)CC[C@H]2[C@H](CC[C@@H]3[C@@H]2CC[C@@]2(C)[C@H]3[C@H](C3CC3)C[C@@H]2[C@](C)(O)Cn2cc(C#N)cn2)C1` [Compound 47, 1-((S)-2-((3R,5R,8R,9R,10S,13S,14S,15S,17S)-15-cyclopropyl-3-hydroxy-3,13-dimethylhexadecahydro-1H-cyclopenta[a]phenanthren-17-yl)-2-hydroxypropyl)-1H-pyrazole-4-carbonitrile]: the IC50 was under 100 nM.

For `COC[C@@]1(O)CC[C@H]2[C@@H](CC[C@@H]3[C@@H]2CC[C@@]2(C)[C@H]3CC[C@@H]2[C@](C)(O)Cn2cc(C#N)cn2)C1` [Compound 19, 1-((S)-2-hydroxy-2-((3R,5S,8R,9R,10S,13S,14S,17S)-3-hydroxy-3-(methoxymethyl)-13-methylhexadecahydro-1H-cyclopenta[a]phenanthren-17-yl)propyl)-1H-pyrazole-4-carbonitrile], the IC50 is under 100 nM.

For the compound `CCC[C@@]1(O)CC[C@H]2[C@H](CC[C@@H]3[C@@H]2CC[C@@]2(C)[C@H]3CC[C@@H]2[C@@](C)(Cn2cc(C#N)cn2)OC)C1` [Compound 36, 1-((S)-2-((3R,5R,8R,9R,10S,13S,14S,17S)-3-hydroxy-13-methyl-3-propylhexadecahydro-1H-cyclopenta[a]phenanthren-17-yl)-2-methoxypropyl)-1H-pyrazole-4-carbonitrile], the IC50 fell in the range of 100 to 1000 nM.

Turning to `COC[C@@]1(O)CC[C@H]2[C@H](CC[C@@H]3[C@@H]2CC[C@]2(C)[C@@H](C4(Cn5cc(C#N)cn5)COC4)CC[C@@H]32)C1` [Compound 40, 1-((3-((3R,5R,8R,9R,10S,13S,14S,17S)-3-hydroxy-3-(methoxymethyl)-13-methylhexadecahydro-1H-cyclopenta[a]phenanthren-17-yl)oxetan-3-yl)methyl)-1H-pyrazole-4-carbonitrile], the IC50 is under 100 nM.

These data come from patent US20250236639A1, “NEUROACTIVE STEROIDS AND COMPOSITIONS THEREOF” (Sage Therapeutics, Inc., priority 2019, published 2025).
